The source of these data is patent EP4389746A2, “P2X3 RECEPTOR ANTAGONISTS” (Recordati Industria Chimica E Farmaceutica SPA, priority 2022, dated 2024).

pIC50: −log10 of the molar value.

Data set [1] has as its target T1, human P2X2/3 receptor (Homo sapiens, UniProt P56373+Q9UBL9).
T1 construct: expressed in transfected cells; host or cells: CHO-K1
T1 sequence (P56373 1-397): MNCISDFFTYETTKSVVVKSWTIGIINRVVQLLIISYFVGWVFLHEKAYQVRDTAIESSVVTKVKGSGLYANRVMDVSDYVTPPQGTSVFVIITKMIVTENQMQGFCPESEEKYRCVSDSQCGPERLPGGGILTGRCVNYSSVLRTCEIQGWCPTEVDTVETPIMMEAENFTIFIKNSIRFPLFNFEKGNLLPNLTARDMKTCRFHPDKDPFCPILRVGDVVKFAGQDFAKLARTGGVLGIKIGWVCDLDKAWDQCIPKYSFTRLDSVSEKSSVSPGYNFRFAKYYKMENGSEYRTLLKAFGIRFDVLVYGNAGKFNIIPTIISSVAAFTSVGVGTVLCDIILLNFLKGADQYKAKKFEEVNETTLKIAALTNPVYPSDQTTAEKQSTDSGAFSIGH
T1 sequence (Q9UBL9 1-471): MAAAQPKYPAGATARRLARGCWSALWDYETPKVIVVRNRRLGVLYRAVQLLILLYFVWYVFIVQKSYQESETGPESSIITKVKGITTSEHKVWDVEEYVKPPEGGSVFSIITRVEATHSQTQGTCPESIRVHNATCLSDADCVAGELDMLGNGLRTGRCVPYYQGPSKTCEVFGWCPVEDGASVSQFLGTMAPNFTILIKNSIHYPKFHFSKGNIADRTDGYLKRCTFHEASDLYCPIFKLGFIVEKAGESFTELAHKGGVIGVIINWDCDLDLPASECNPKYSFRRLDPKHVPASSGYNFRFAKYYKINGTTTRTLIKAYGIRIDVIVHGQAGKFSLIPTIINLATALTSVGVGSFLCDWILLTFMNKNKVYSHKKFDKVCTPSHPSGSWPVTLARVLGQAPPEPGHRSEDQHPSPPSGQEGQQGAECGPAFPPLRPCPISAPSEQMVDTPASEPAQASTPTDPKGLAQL
As to the kind of experiment: Calcium fluorescence measurement: human P2X2/3 receptor activity inhibition (CHO-K1 cells, Fluo-8 NoWash, […]). The class given is cell-based.

Data set [2] has as its system Sprague-Dawley Rats. The data set can be described thus: Two bottle taste test in rats: dysgeusia effect of P2X3 antagonists. To be noted: rats water fasted overnight; bottles presented 30 minutes after treatment for 15 minutes (Fig. 4). The class given is in vivo. The protocol: C57BL/6J mice, Hartley Guinea pigs and Sprague-Dawley Rats from Charles River Italy were used in the experiments. Animals were housed with free access to food and water and maintained on a forced 12 hr light-dark cycle at 22-24°C for at least one week before the experiments were carried out. The animals were handled according to internationally accepted principles for care of laboratory animals (Directive 2010/63/EU of the European Parliament and of the Council of 22 September 2010).
(Fig 3) "Two bottle taste test" in rats - Dysgeusia effect of P2X3 antagonists
Rats were water fasted overnight. The day of the experiment the animals were treated with tested compounds and 30 minutes later two bottles were presented for 15 minutes, the first one containing water and the second bottle containing Quinine, a substance showing a bitter taste. The volume of liquid drunk in 15 minutes from each bottle was recorded and expressed as percentage of preference (Fig.4). Statistical analysis was performed on absolute values (mean ± SEM) using one-way ANOVA and Tukey's test for multiple comparisons.

In the case of `CC(C)C1C(=O)N=C2c3ncc(N4CCOCC4)cc3N(Cc3ccc(Cl)cc3)C(=O)N21` (racemic) [Example 22, 6-[(4-Chlorophenyl)methyl]-8-(morpholin-4-yl)-3-(propan-2-yl)imidazo[1,2-c]pyrido[2,3-e]pyrimidine-2,5(3H,6H)-dione], the pIC50 in data set [1] (CHO-K1 cells expressing human P2RX2/X3 channel, 10µM α,β-Met-ATP, read-out: h-P2X2/3 IC50) was 4.73. The Selectivity in data set [1] (ratio of IC50 of P2X2/3/ P2X3 receptors) is recorded as 510. Also, in data set [2], the “preference between water and Quinine” value is “showed a clear preference for water in comparison to Quinine”.
